Data reported in US6930075B1, “Fatty acid-based herbicidal composition” (priority 1990, dated 2005).

What was measured:
Test in all cases: Greenhouse spray, phytotoxicity and mortality over time;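 as to Phyto (Phytotoxicity, 0–10 rating scale): 0 means no damage and 10 means plant death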;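 as to Phyto (phytotoxicity ratings, 0–10 rating scale): 0 means no damage and 10 means plant death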;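 as to Phyto = Phytotoxicity (0–10 rating scale): 0 means no damage and 10 means plant death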
Type in all cases: in vivo
[1] = test system: Radish Plants; conditions: for Mortality: plants died of 4;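 as to Phyto = Phytotoxicity (0–10 rating scale): 0 means no damage and 10 means plant death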
Protocol: (§1) Herbicidal treatments were applied using a spray chamber fitted with a TeeJet 8006E flat fan nozzle (available from Spraying Systems Co., Wheaton, Ill.), calibrated to spray at a volume of 60 gpa at 40 psi. Treatment solutions were freshly prepared for each experiment. […] M. et al, J. Wiley and Sons, 1975, pp. 119–120, 218.
(§2) In a greenhouse facility four plant species were grown in 5.5 cm square pots using a potting soil mix comprising peat, vermiculite, sand and 4-10-10 fertilizer. Water soluble 20-20-20 fertilizer was used as a supplement for the plants as required. The plant species used were corn, oats, radish and morningglory. The plants were selected for use based on uniformity and quality. The corn plants used were in the 3 to 4 leaf stage and two plants were present in each pot. The oats used were in the 2 to 4 leaf stage and four plants were present per pot. The radish plants used were in the 3 to 5 leaf stage and one plant was used per pot. The morningglory were in the 2 to 4 leaf stage with one plant per pot. After spraying with a herbicidal formulation, the pots were arranged in a randomized complete block design in sub-irrigated watering trays, and included a water-treated control treatment. Four replicates (pots) were used for each treatment.
(§3) Herbicidal treatments were applied and recorded as in Example 1.

[2] = test system: Oats;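 also: 0 means no damage and 10 means plant death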
Protocol: as §1, §2, §3

[3] = test system: Morningglory; conditions: for Mortality: plants died of 4
Protocol: as §1, §2, §3

[4] = test system: Corn; conditions: for Mortality: plants died of 8
Protocol: as §1, §2, §3

[5] = 9 Days after Treatment, listed as 0.1% C9 Na^+ Salt
[6] = 9 Days after Treatment, listed as 0.5% C9 Na^+ Salt
[7] = 9 Days after Treatment, listed as 1.0% C9 Na^+ Salt
[8] = 11 Days after Treatment, listed as 0.1% C9 Na^+ Salt
[9] = 11 Days after Treatment, listed as 0.5% C9 Na^+ Salt
[10] = 11 Days after Treatment, listed as 1.0% C9 Na^+ Salt
[11] = 16 Days after Treatment, listed as 0.1% C9 Na^+ Salt
[12] = 16 Days after Treatment, listed as 0.5% C9 Na^+ Salt
[13] = 16 Days after Treatment, listed as 1.0% C9 Na^+ Salt
[14] = 18 Days after Treatment, listed as 0.1% C9 Na^+ Salt
[15] = 18 Days after Treatment, listed as 0.5% C9 Na^+ Salt
[16] = 18 Days after Treatment, listed as 1.0% C9 Na^+ Salt
[17] = 21 Days after Treatment, listed as 0.1% C9 Na^+ Salt
[18] = 21 Days after Treatment, listed as 0.5% C9 Na^+ Salt
[19] = 21 Days after Treatment, listed as 1.0% C9 Na^+ Salt
[20] = 23 Days after Treatment, listed as 0.1% C9 Na^+ Salt
[21] = 23 Days after Treatment, listed as 0.5% C9 Na^+ Salt
[22] = 23 Days after Treatment, listed as 1.0% C9 Na^+ Salt

## CCCCCCCCC(=O)[O-].[Na+] [Sodium pelargonate]
[1]; 2 Days after Treatment
  Phyto = Phytotoxicity (0–10 rating scale): 0
  Mortality: 0
[1]; 4 Days after Treatment
  Phyto = Phytotoxicity (0–10 rating scale): 0
  Mortality: 0
[1]; 7 Days after Treatment, listed as 0.1% C9 Na^+ Salt
  Phyto = Phytotoxicity (0–10 rating scale): 0
[1]; 7 Days after Treatment, listed as 0.5% C9 Na^+ Salt
  Phyto = Phytotoxicity (0–10 rating scale): 0
[1]; 7 Days after Treatment, listed as 1.0% C9 Na^+ Salt
  Phyto = Phytotoxicity (0–10 rating scale): 0.5
[1]; 7 Days after Treatment
  Mortality: 0
[1]; [5]
  Phyto = Phytotoxicity (0–10 rating scale): 0
[1]; [6]
  Phyto = Phytotoxicity (0–10 rating scale): 0
[1]; [7]
  Phyto = Phytotoxicity (0–10 rating scale): 0.5
[1]; 9 Days after Treatment
  Mortality: 0
[1]; [8]
  Phyto = Phytotoxicity (0–10 rating scale): 0
[1]; [9]
  Phyto = Phytotoxicity (0–10 rating scale): 0
[1]; [10]
  Phyto = Phytotoxicity (0–10 rating scale): 0.5
[1]; 11 Days after Treatment
  Mortality: 0
[1]; [11]
  Phyto = Phytotoxicity (0–10 rating scale): 0
[1]; [12]
  Phyto = Phytotoxicity (0–10 rating scale): 0
[1]; [13]
  Phyto = Phytotoxicity (0–10 rating scale): 0.5
[1]; 16 Days after Treatment
  Mortality: 0
[1]; [14]
  Phyto = Phytotoxicity (0–10 rating scale): 0
[1]; [15]
  Phyto = Phytotoxicity (0–10 rating scale): 0
[1]; [16]
  Phyto = Phytotoxicity (0–10 rating scale): 0.5
[1]; 18 Days after Treatment
  Mortality: 0
[1]; [17]
  Phyto = Phytotoxicity (0–10 rating scale): 0
[1]; [18]
  Phyto = Phytotoxicity (0–10 rating scale): 0
[1]; [19]
  Phyto = Phytotoxicity (0–10 rating scale): 0.5
[1]; 21 Days after Treatment
  Mortality: 0
[1]; [20]
  Phyto = Phytotoxicity (0–10 rating scale): 0
[1]; [21]
  Phyto = Phytotoxicity (0–10 rating scale): 0
[1]; [22]
  Phyto = Phytotoxicity (0–10 rating scale): 0.5
[1]; 23 Days after Treatment
  Mortality: 0
[1]; 25 Days after Treatment, listed as 0.1% C9 Na^+ Salt
  Phyto = Phytotoxicity (0–10 rating scale): 0
[1]; 25 Days after Treatment, listed as 0.5% C9 Na^+ Salt
  Phyto = Phytotoxicity (0–10 rating scale): 0
[1]; 25 Days after Treatment, listed as 1.0% C9 Na^+ Salt
  Phyto = Phytotoxicity (0–10 rating scale): 0.5
[1]; 25 Days after Treatment
  Mortality: 0
[1]; 28 Days after Treatment, listed as 0.1% C9 Na^+ Salt
  Phyto = Phytotoxicity (0–10 rating scale): 0
[1]; 28 Days after Treatment, listed as 0.5% C9 Na^+ Salt
  Phyto = Phytotoxicity (0–10 rating scale): 0
[1]; 28 Days after Treatment, listed as 1.0% C9 Na^+ Salt
  Phyto = Phytotoxicity (0–10 rating scale): 0.5
[1]; 28 Days after Treatment
  Mortality: 0
[1]; 30 Days after Treatment, listed as 0.1% C9 Na^+ Salt
  Phyto = Phytotoxicity (0–10 rating scale): 0
[1]; 30 Days after Treatment, listed as 0.5% C9 Na^+ Salt
  Phyto = Phytotoxicity (0–10 rating scale): 0
[1]; 30 Days after Treatment, listed as 1.0% C9 Na^+ Salt
  Phyto = Phytotoxicity (0–10 rating scale): 0.5
[1]; 30 Days after Treatment
  Mortality: 0
[1]; 32 Days after Treatment, listed as 0.1% C9 Na^+ Salt
  Phyto = Phytotoxicity (0–10 rating scale): 0
[1]; 32 Days after Treatment, listed as 0.5% C9 Na^+ Salt
  Phyto = Phytotoxicity (0–10 rating scale): 0
[1]; 32 Days after Treatment, listed as 1.0% C9 Na^+ Salt
  Phyto = Phytotoxicity (0–10 rating scale): 0.5
[1]; 32 Days after Treatment
  Mortality: 0
[1]; 35 Days after Treatment, listed as 0.1% C9 Na^+ Salt
  Phyto = Phytotoxicity (0–10 rating scale): 0
[1]; 35 Days after Treatment, listed as 0.5% C9 Na^+ Salt
  Phyto = Phytotoxicity (0–10 rating scale): 0
[1]; 35 Days after Treatment, listed as 1.0% C9 Na^+ Salt
  Phyto = Phytotoxicity (0–10 rating scale): 0.5
[1]; 35 Days after Treatment
  Mortality: 0
[1]; 42 Days after Treatment, listed as 0.1% C9 Na^+ Salt
  Phyto = Phytotoxicity (0–10 rating scale): 0
[1]; 42 Days after Treatment, listed as 0.5% C9 Na^+ Salt
  Phyto = Phytotoxicity (0–10 rating scale): 0
[1]; 42 Days after Treatment, listed as 1.0% C9 Na^+ Salt
  Phyto = Phytotoxicity (0–10 rating scale): 0.5
[1]; 42 Days after Treatment
  Mortality: 0
[1]; 46 Days after Treatment, listed as 0.1% C9 Na^+ Salt
  Phyto = Phytotoxicity (0–10 rating scale): 0
[1]; 46 Days after Treatment, listed as 0.5% C9 Na^+ Salt
  Phyto = Phytotoxicity (0–10 rating scale): 0
[1]; 46 Days after Treatment, listed as 1.0% C9 Na^+ Salt
  Phyto = Phytotoxicity (0–10 rating scale): 0.5
[1]; 46 Days after Treatment
  Mortality: 0
[1]; 57 Days after Treatment, listed as 0.1% C9 Na^+ Salt
  Phyto = Phytotoxicity (0–10 rating scale): 0
[1]; 57 Days after Treatment, listed as 0.5% C9 Na^+ Salt
  Phyto = Phytotoxicity (0–10 rating scale): 0
[1]; 57 Days after Treatment, listed as 1.0% C9 Na^+ Salt
  Phyto = Phytotoxicity (0–10 rating scale): 0.5
[1]; 57 Days after Treatment
  Mortality: 0
[2]; 2 Days after Treatment
  Phyto (phytotoxicity ratings, 0–10 rating scale): 0
[2]; 4 Days after Treatment
  Phyto (phytotoxicity ratings, 0–10 rating scale): 0
[2]; 7 Days after Treatment
  Phyto (phytotoxicity ratings, 0–10 rating scale): 0
[2]; 9 Days after Treatment
  Phyto (phytotoxicity ratings, 0–10 rating scale): 0
[2]; 11 Days after Treatment
  Phyto (phytotoxicity ratings, 0–10 rating scale): 0
[2]; 16 Days after Treatment
  Phyto (phytotoxicity ratings, 0–10 rating scale): 0
[2]; 18 Days after Treatment
  Phyto (phytotoxicity ratings, 0–10 rating scale): 0
[2]; 21 Days after Treatment
  Phyto (phytotoxicity ratings, 0–10 rating scale): 0
[2]; 23 Days after Treatment
  Phyto (phytotoxicity ratings, 0–10 rating scale): 0
[2]; 25 Days after Treatment
  Phyto (phytotoxicity ratings, 0–10 rating scale): 0
[2]; 28 Days after Treatment
  Phyto (phytotoxicity ratings, 0–10 rating scale): 0
[2]; 30 Days after Treatment
  Phyto (phytotoxicity ratings, 0–10 rating scale): 0
[2]; 32 Days after Treatment
  Phyto (phytotoxicity ratings, 0–10 rating scale): 0
[2]; 35 Days after Treatment
  Phyto (phytotoxicity ratings, 0–10 rating scale): 0
[3]; 2 Days after Treatment
  Phyto (Phytotoxicity, 0–10 rating scale): 0
  Mortality: 0
[3]; 4 Days after Treatment
  Phyto (Phytotoxicity, 0–10 rating scale): 0
  Mortality: 0
[3]; 7 Days after Treatment
  Phyto (Phytotoxicity, 0–10 rating scale): 0
  Mortality: 0
[3]; 9 Days after Treatment
  Phyto (Phytotoxicity, 0–10 rating scale): 0
  Mortality: 0
[3]; 11 Days after Treatment
  Phyto (Phytotoxicity, 0–10 rating scale): 0
  Mortality: 0
[3]; 16 Days after Treatment
  Phyto (Phytotoxicity, 0–10 rating scale): 0
  Mortality: 0
[3]; 18 Days after Treatment
  Phyto (Phytotoxicity, 0–10 rating scale): 0
  Mortality: 0
[3]; 21 Days after Treatment
  Phyto (Phytotoxicity, 0–10 rating scale): 0
  Mortality: 0
[3]; 23 Days after Treatment
  Phyto (Phytotoxicity, 0–10 rating scale): 0
  Mortality: 0
[3]; 25 Days after Treatment
  Phyto (Phytotoxicity, 0–10 rating scale): 0
  Mortality: 0
[3]; 28 Days after Treatment
  Phyto (Phytotoxicity, 0–10 rating scale): 0
  Mortality: 0
[3]; 30 Days after Treatment
  Phyto (Phytotoxicity, 0–10 rating scale): 0
  Mortality: 0
[3]; 32 Days after Treatment
  Phyto (Phytotoxicity, 0–10 rating scale): 0
  Mortality: 0
[3]; 35 Days after Treatment
  Phyto (Phytotoxicity, 0–10 rating scale): 0
  Mortality: 0
[4]; 2 Days after Treatment
  Phyto (Phytotoxicity, 0–10 rating scale): 0
  Mortality: 0
[4]; 4 Days after Treatment
  Phyto (Phytotoxicity, 0–10 rating scale): 0
  Mortality: 0
[4]; 7 Days after Treatment
  Phyto (Phytotoxicity, 0–10 rating scale): 0
  Mortality: 0
[4]; [5]
  Phyto (Phytotoxicity, 0–10 rating scale): 0
[4]; [6]
  Phyto (Phytotoxicity, 0–10 rating scale): 0.5
[4]; [7]
  Phyto (Phytotoxicity, 0–10 rating scale): 0
[4]; 9 Days after Treatment
  Mortality: 0
[4]; [8]
  Phyto (Phytotoxicity, 0–10 rating scale): 0
[4]; [9]
  Phyto (Phytotoxicity, 0–10 rating scale): 0.5
[4]; [10]
  Phyto (Phytotoxicity, 0–10 rating scale): 0
[4]; 11 Days after Treatment
  Mortality: 0
[4]; [11]
  Phyto (Phytotoxicity, 0–10 rating scale): 0.25
[4]; [12]
  Phyto (Phytotoxicity, 0–10 rating scale): 1.0
[4]; [13]
  Phyto (Phytotoxicity, 0–10 rating scale): 0.25
[4]; 16 Days after Treatment
  Mortality: 0
[4]; [14]
  Phyto (Phytotoxicity, 0–10 rating scale): 1.0
[4]; [15]
  Phyto (Phytotoxicity, 0–10 rating scale): 1.0
[4]; [16]
  Phyto (Phytotoxicity, 0–10 rating scale): 0.25
[4]; 18 Days after Treatment
  Mortality: 0
[4]; [17]
  Phyto (Phytotoxicity, 0–10 rating scale): 1.0
[4]; [18]
  Phyto (Phytotoxicity, 0–10 rating scale): 1.0
[4]; [19]
  Phyto (Phytotoxicity, 0–10 rating scale): 0.5
[4]; 21 Days after Treatment
  Mortality: 0
[4]; [20]
  Phyto (Phytotoxicity, 0–10 rating scale): 1.0
[4]; [21]
  Phyto (Phytotoxicity, 0–10 rating scale): 1.0
[4]; [22]
  Phyto (Phytotoxicity, 0–10 rating scale): 0.75
[4]; 23 Days after Treatment
  Mortality: 0
[4]; 25 Days after Treatment
  Phyto (Phytotoxicity, 0–10 rating scale): 1.0
  Mortality: 0
[4]; 28 Days after Treatment
  Phyto (Phytotoxicity, 0–10 rating scale): 0
  Mortality: 0
[4]; 30 Days after Treatment
  Phyto (Phytotoxicity, 0–10 rating scale): 0
  Mortality: 0
[4]; 32 Days after Treatment
  Phyto (Phytotoxicity, 0–10 rating scale): 0
  Mortality: 0
[4]; 35 Days after Treatment
  Phyto (Phytotoxicity, 0–10 rating scale): 0
  Mortality: 0
[4]; 42 Days after Treatment
  Phyto (Phytotoxicity, 0–10 rating scale): 0
  Mortality: 0
[4]; 46 Days after Treatment
  Phyto (Phytotoxicity, 0–10 rating scale): 0
  Mortality: 0
[4]; 57 Days after Treatment
  Phyto (Phytotoxicity, 0–10 rating scale): 0
  Mortality: 0
